Measured values: patent publication US20040210184A1, “Effect of electric field and ultrasound for transdermal drug delivery” (Massachusetts Institute of Technology, priority 1995, published 2004)

Columns and labels:
[1] = human, 1 mM, pH 7.4
Procedure: Full thickness of human cadaver skin (obtained from local hospitals) was heat stripped by immersion in 60° C. water for two minutes followed by the removal of the epidermis. The skin was then stored in a humidified chamber (95% relative humidity) at 4° C. The heat-stripped human epidermis was placed in a custom-made side-by-side permeation chamber, skin area of 0.64 cm^2, designed to adapt an ultrasound transducer at the donor side. The donor compartment was filled with a 1 mM solution of calcein (MW 623, electric charge—4; Sigma Chemicals) (CA) and 1 mM sulphorhodamine (MW 607, electric charge—1; Sigma Chemical) (SR) in 150 mM Phosphate Buffer Saline (PBS; Sigma Chemicals).
The ultrasound probe was inserted into the donor compartment. […]
The fluorometer was set up for dual wavelength measurements (excitation wavelength=488 nm, emission wavelength=515 nm (calcein), and excitation wavelength =586 nm, emission wavelength=607 nm (sulphorhodamine)). […] Transdermal calcein and sulphorhodamine flux was calculated from the fluorescence readings by taking into account parameters such as flow rate, receiver compartment volume, and fluorometer caveat volume. The effluent from the receptor compartment was pumped through a spectrofluorometer (Fluorolog-II-system F112AI SPEX-industries, Edison, N.J.) where the fluorescence of calcein and sulphorhodamine was separately measured twice every minute. […]

[2] = Stability of the molecules under electroporating conditions and temperature, measured by fluorescence; assay type: physicochemical; details: 1 mM solutions under electroporating conditions
Procedure: In order to assess the stability of these molecules during electroporation, calcein and sulphorhodamine solutions (1 mM each) were exposed to electroporating conditions similar to those used in this study. No difference between the intensity of their fluorescence before and after exposure to electric fields could be detected. In addition, these molecules are stable up to a temperature of 100° C. (measured in terms of fluorescence).

[3] = assay type: in vitro ADME
Text: Passive experiments without ultrasound with polyethylene glycol 200 dilaurate (PEG), isopropyl myristate (IM), and glycerol trioleate (GT) result in corticosterone flux enhancement values of only 2, 5, and 0.8, relative to the passive flux from PBS alone. […] These passive flux enhancements were due to (1) the increased corticosterone solubility in the enhancers, and (2) interactions of linoleic acid with the skin. Specifically, linoleic acid increased the corticosterone permeability by nearly 20-fold over that from 50% ethanol alone. […] Ultrasound combined with 50% ethanol produces a 2-fold increase in corticosterone transport above the passive case, but increase by 14-fold the transport from LA/Ethanol.

[4] = ethanol as chemical enhancer; cited from earlier work

## O=C(O)CN(CC(=O)O)Cc1cc2c(cc1O)Oc1cc(O)c(CN(CC(=O)O)CC(=O)O)cc1C21OC(=O)c2ccccc21 [calcein]
[1]
  enhancement: amount transported in the presence of ultrasound-electric field pulsing to that in the presence of electric field pulsing alone: 2
[2]
  difference in fluorescence intensity before and after exposure to electric fields: No difference

## C[C@]12C[C@H](O)[C@H]3[C@@H](CCC4=CC(=O)CC[C@@]43C)[C@@H]1CC[C@@H]2C(=O)CO [corticosterone]
[3]
  flux: 0.16 mg/cm^2/hr
  flux relative to that from PBS alone: 13,000 fold
  flux with ultrasound relative to the passive flux from the same enhancers: 1.3-5.0
  permeability increase by linoleic acid over that from 50% ethanol alone: ~20 fold

## C[C@]12CC[C@@H]3c4ccc(O)cc4CC[C@H]3[C@@H]1CC[C@@H]2O [estradiol]
[4]
  flux increase by ethanol: 140 fold

## O=S(=O)([O-])c1cc(S(=O)(=O)O)ccc1C1=c2cc3c4c(c2Oc2c1cc1c5c2CCCN5CCC1)CCC[N+]=4CCC3 [sulphorhodamine]
[2]
  difference in fluorescence intensity before and after exposure to electric fields: No difference
